Measured values published in patent US7964613B2 (Asahi Kasei Pharma Corporation, priority 2007, dated 2011).

Assays:
human ROCK1 = target: T1, human ROCK1 (Homo sapiens, UniProt Q13464); test: Measurement of Rho kinase inhibitory activity (ELISA of MBS phosphorylation); type: biochemical; details: human ROCK1, MBS substrate, 100 μM ATP, 30° C. for 10 minutes
T1 construct: His tag (N); host or cells: insect cells (Sf9)
Experimental: In this test, human ROCK1 was used as Rho kinase, MBS (myosin binding subunit, subunit constituting myosin phosphatase) was used as the substrate of Rho kinase, and an anti-phosphorylated MBS antibody was used for detection of phosphorylation. The activity for inhibiting Rho kinase was determined by measuring phosphorylation of MBS by the Rho kinase by ELISA in the presence of an appropriately diluted test compound. As the Rho kinase used, a recombinant protein (N-terminal His-tagged recombinant human ROCK1 residues (1Met-[…])) was used, which was produced in insect cells (Sf9) using a sequence (1-727), of which activity was confirmed in the paper of Ishizaki et al. (Ishizaki, T. et al., FEBS Letters, 404, pp 118-124, 1997), based on the sequence of human ROCK1 (p 160 ROCK) described in the report of Ishizaki et al. (Ishizaki, T. et al., EMBO J., 15, pp 1885-1893, 1996). Further, as the MBS protein and anti-phosphorylated MBS antibody, those prepared according to the method described in the paper of Ito et al. (Ito, K et al., J. Physiol., 546, pp 823-836, 2003) were used.
A solution of MBS (Asahi Kasei Pharma, lot No, 040814n7-10) diluted with PBS to an appropriate concentration was added to an ELISA plate (Maxisorp, Nunc), and left, stand overnight at 4° C., and then the wells were washed twice with a washing solution (WB, washing buffer, 0.1% Tween 20/PBS). To the wells were added 1% bovine serum albumin (Sigma)/PBS, and left for 1 to 3 hours, and then the wells were washed 5 times with WB to prepare a substrate-immobilized plate. Onto this plate, a reaction mixture (5 mM MgSO4/0.1 M NaCl/20 mM HEPES (pH 7.5)/100 μM ATP/5 mM DTT), a test compound, and appropriately diluted human ROCK1 (Asahi Kasei Pharma, lot No, 030126.120-22) were added, and then reacted at 30° C. for 10 minutes. Then, 0.2 M EDTA (pH 7.5) was added to terminate the reaction, and the wells were washed 5 times with WB. A rabbit anti-phosphorylated MBS antibody solution (Asahi Kasei Pharma, lot No, 122676431) diluted 10,000 times with WB containing 1% bovine serum albumin was added to the wells, and after the reaction for 1 hour, the wells were washed 5 times with WB. Goat anti-rabbit IgG-HRP (Zymed) diluted 1,000 times with WB containing 1% bovine serum albumin was added to the wells as the secondary detection antibody and the mixture was reacted for 1 hour, and then the wells were washed 5 times with WB. An OPD (o-phenylenediamine) solution (1 mg/ml OPD, Sigma), 5.1 g/l of citric acid monohydrate, and 18.4 g/l of Na2HPO4.12H2O were added to the wells to develop color, […] was added 5 minutes later to terminate the color development, and absorbance was measured at 490 nm.
The inhibition ratio was calculated as follows. Inhibition ratio(%)=[…]
Further, the inhibition ratio was calculated with changing the concentration of the test compound, and a compound concentration providing an inhibition ratio of 50% was obtained as IC50.

[1] = tested on: rabbit normal intraocular pressure; test: Intraocular pressure reducing action; type: in vivo, Japanese white rabbit; details: Oryctolagus cuniculus, topical; 3 mM aqueous solution, 50 μl to the left eye; max IOP reduction (2, 4, 6 hours) / value immediately before administration; read-out: intraocular pressure reducing degree
Procedure, shortened: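 Japanese white rabbits (~2 kg) under topical anaesthesia received 50 μl of a 3 mM aqueous test solution in the left eye, right eye untreated. IOP read by tonometer before and at 2, 4, 6 h; maximal left–right difference divided by pre-dose IOP ×100 gives % reduction.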

T1 sequence (Q13464 1-727): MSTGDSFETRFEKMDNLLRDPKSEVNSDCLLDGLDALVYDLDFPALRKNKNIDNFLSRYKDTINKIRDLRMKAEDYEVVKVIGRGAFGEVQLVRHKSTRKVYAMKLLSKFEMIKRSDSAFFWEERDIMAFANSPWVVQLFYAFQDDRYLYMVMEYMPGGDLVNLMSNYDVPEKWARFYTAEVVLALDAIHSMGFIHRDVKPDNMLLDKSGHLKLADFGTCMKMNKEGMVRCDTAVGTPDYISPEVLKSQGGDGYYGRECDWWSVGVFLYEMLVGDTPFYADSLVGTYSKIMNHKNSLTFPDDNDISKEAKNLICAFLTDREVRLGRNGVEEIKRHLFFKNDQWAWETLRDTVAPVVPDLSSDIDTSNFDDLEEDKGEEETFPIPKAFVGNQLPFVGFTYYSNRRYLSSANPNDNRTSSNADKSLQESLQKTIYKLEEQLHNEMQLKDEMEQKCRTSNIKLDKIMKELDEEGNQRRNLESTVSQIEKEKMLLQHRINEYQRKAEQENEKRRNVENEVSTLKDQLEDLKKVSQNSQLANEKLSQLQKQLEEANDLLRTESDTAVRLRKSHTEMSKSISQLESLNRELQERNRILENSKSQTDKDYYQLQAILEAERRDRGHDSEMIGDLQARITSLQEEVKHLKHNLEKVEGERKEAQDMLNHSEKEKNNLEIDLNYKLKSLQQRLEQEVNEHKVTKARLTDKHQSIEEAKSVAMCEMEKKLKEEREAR

| IC50 (human ROCK1) [nM] | SMILES | inhibition in vivo at 3000 µM [1] [%] |
| --- | --- | --- |
| 1000 to 3000 | O=C(CN1CCC1)N[C@H]1CCN(S(=O)(=O)c2cccc3cncc(Cl)c23)C1 [Example 114, (S)-3-[2-(Azetidin-1-yl)acetyl]amino-1-(4-chloro-5-isoquinolinesulfonyl)pyrrolidine] | 5 to 10 |
| < 1000 | Cc1cncc2cccc(S(=O)(=O)N3CC[C@H](NCCN)C3)c12 [Example 8-32] | 5 to 10 |
| < 1000 | Cc1cncc2cccc(S(=O)(=O)N3CC[C@H](NCCc4ccccc4)C3)c12 [Example 8-37] | 5 to 10 |
| 1000 to 3000 | O=C(COC1CCOCC1)N[C@H]1CCN(S(=O)(=O)c2cccc3cncc(Cl)c23)C1 [Example 110, (S)-3-[[2-(Tetrahydro-2H-pyran-4-yloxy)]acetyl]amino-1-(4-chloro-5-isoquinolinesulfonyl)pyrrolidine] | ≥ 20 |
| 1000 to 3000 | O=S(=O)(c1cccc2c(O)ncc(Br)c12)N1CC[C@H](NCc2ccco2)C1 [Example 38-1, (S)-1-(1-Hydroxy-4-bromo-5-isoquinolinesulfonyl)-3-(2-furylmethylamino)pyrrolidine] | 5 to 10 |
| < 1000 | N[C@H]1CCN(S(=O)(=O)c2cccc3c(O)ncc(Br)c23)C1 [Example 7-1, (S)-3-Amino-1-(1-hydroxy-4-bromo-5-isoquinolinesulfonyl)pyrrolidine] | ≥ 20 |
| 1000 to 3000 | O=C(COc1cccnc1)N[C@H]1CCN(S(=O)(=O)c2cccc3cncc(Cl)c23)C1 [Example 104, (S)-3-[2-(3-Pyridyloxy)acetyl]amino-1-(4-chloro-5-isoquinolinesulfonyl)pyrrolidine] | ≥ 20 |
| 1000 to 3000 | O=C(COc1ccccc1)N[C@H]1CCN(S(=O)(=O)c2cccc3cncc(Cl)c23)C1 [Example 103, (S)-3-(2-Phenoxyacetyl)amino-1-(4-chloro-5-isoquinolinesulfonyl)pyrrolidine] | ≥ 20 |
| < 1000 | C#Cc1cncc2cccc(S(=O)(=O)N3CC[C@H](NCc4ccc(OC)cc4)C3)c12 [Example 10-7] | 10 to 20 |
| < 1000 | N[C@@H]1CCN(S(=O)(=O)c2cccc3cncc(Br)c23)C1 [Example 1-2, (R)-3-Amino-1-(4-bromo-5-isoquinolinesulfonyl)pyrrolidine] | ≥ 20 |
| < 1000 | NOCC(=O)N[C@H]1CCN(S(=O)(=O)c2cccc3cncc(Cl)c23)C1 [Example 101, (S)-3-[2-(Aminooxy)acetyl]amino-1-(4-chloro-5-isoquinolinesulfonyl)pyrrolidine] | ≥ 20 |
| < 1000 | COc1ccc(CN[C@H]2CCN(S(=O)(=O)c3cccc4cncc(F)c34)C2)cc1 [Example 18-7] | 5 to 10 |
| < 1000 | N[C@@H]1CCN(S(=O)(=O)c2cccc3cncc(Cl)c23)C1 [Example 19-2, (R)-3-Amino-1-(4-chloro-5-isoquinolinesulfonyl)pyrrolidine] | ≥ 20 |
| < 1000 | O=S(=O)(c1cccc2cncc(Br)c12)N1CC[C@H](NCc2ccoc2)C1 [Example 1-14] | 5 to 10 |
| 1000 to 3000 | N[C@@H]1CCCN(S(=O)(=O)c2cccc3cncc(Cl)c23)C1 [Example 21-2, (R)-3-Amino-1-(4-chloro-5-isoquinolinesulfonyl)piperidine] | 10 to 20 |
| 1000 to 3000 | Nc1cncc2cccc(S(=O)(=O)N3CC[C@H](N)C3)c12 [Example 12-1, (S)-3-Amino-1-(4-amino-5-isoquinolinesulfonyl)pyrrolidine] | 10 to 20 |
| 1000 to 3000 | NCCN[C@H]1CCN(S(=O)(=O)c2cccc3cncc(Cl)c23)C1 [Example 19-32] | ≥ 20 |

| IC50 (human ROCK1) [nM] | SMILES | inhibition in vivo at 3000 µM [1] [%] |
| --- | --- | --- |
| < 1000 | N[C@H]1CCN(S(=O)(=O)c2cccc3c(O)ncc(Cl)c23)C1 [Example 30-1, (S)-3-Amino-1-(1-hydroxy-4-chloro-5-isoquinolinesulfonyl)pyrrolidine] | ≥ 20 |
| 1000 to 3000 | CN[C@@H]1CCN(S(=O)(=O)c2cccc3c(O)ncc(Cl)c23)C1 [Example 36-2, (R)-1-(1-Hydroxy-4-chloro-5-isoquinolinesulfonyl)-3-(methylamino)pyrrolidine] | 10 to 20 |
| 1000 to 3000 | Cc1cncc2cccc(S(=O)(=O)N3CC[C@H](NC4CCCC4)C3)c12 [Example 8-29] | 5 to 10 |
| < 1000 | Cc1cnc(O)c2cccc(S(=O)(=O)N3CC[C@H](N)C3)c12 [Example 25-1, (S)-3-Amino-1-(1-hydroxy-4-methyl-5-isoquinolinesulfonyl)pyrrolidine] | 10 to 20 |
| 1000 to 3000 | O=C(Cn1cnnn1)N[C@H]1CCN(S(=O)(=O)c2cccc3cncc(Cl)c23)C1 [Example 85, (S)-3-[2-(1H-Tetrazol-1-yl)acetyl]amino-1-(4-chloro-5-isoquinolinesulfonyl)pyrrolidine] | 10 to 20 |
| 1000 to 3000 | O=C(CCN1CCCCC1)N[C@H]1CCN(S(=O)(=O)c2cccc3cncc(Cl)c23)C1 [Example 80, (S)-3-[3-(Piperidin-1-yl)propionyl]amino-1-(4-chloro-5-isoquinolinesulfonyl)pyrrolidine] | 5 to 10 |
| 1000 to 3000 | Cc1cncc2cccc(S(=O)(=O)N3CC[C@H](NC(C)C)C3)c12 [Example 8-27] | 10 to 20 |
| < 1000 | Cc1cncc2cccc(S(=O)(=O)N3CCC[C@@H](N)C3)c12 [Example 22-2, (R)-3-Amino-1-(4-methyl-5-isoquinolinesulfonyl)piperidine] | 10 to 20 |
| 1000 to 3000 | CNCC(=O)N[C@H]1CCN(S(=O)(=O)c2cccc3cncc(Cl)c23)C1 [Example 51-1, (S)-3-(2-Methylaminoacetyl)amino-1-(4-chloro-5-isoquinolinesulfonyl)pyrrolidine] | 10 to 20 |
| 1000 to 3000 | Cc1nc(CN[C@H]2CCN(S(=O)(=O)c3cccc4cncc(Br)c34)C2)c[nH]1 [Example 1-19] | 5 to 10 |
| 1000 to 3000 | N[C@H]1CCCN(S(=O)(=O)c2cccc3cncc(Cl)c23)C1 [Example 21-1, (S)-3-Amino-1-(4-chloro-5-isoquinolinesulfonyl)piperidine] | ≥ 20 |
| < 1000 | N[C@H]1CCN(S(=O)(=O)c2cccc3cncc(Br)c23)C1 [Example 1-1, (S)-3-Amino-1-(4-bromo-5-isoquinolinesulfonyl)pyrrolidine] | ≥ 20 |
| < 1000 | Cn1cccc1CN[C@H]1CCN(S(=O)(=O)c2cccc3cncc(Br)c23)C1 [Example 1-20] | 10 to 20 |
| < 1000 | O=S(=O)(c1cccc2cncc(Cl)c12)N1CC[C@H](NCc2ccc3c(c2)OCCO3)C1 [Example 19-40] | 5 to 10 |
| < 1000 | Cc1cncc2cccc(S(=O)(=O)N3CC[C@H](NCC4CC4)C3)c12 [Example 8-26] | 5 to 10 |
| < 1000 | O=S(=O)(c1cccc2c(O)ncc(Cl)c12)N1CC[C@H](NC2CCOCC2)C1 [Example 64-1, (S)-3-(4-Tetrahydropyranyl)amino-1-(1-hydroxy-4-chloro-5-isoquinolinesulfonyl)pyrrolidine] | 10 to 20 |
